Source: patent US9593153B2, “Modified apelin polypeptides” (INSERM (INSTITUT NATIONAL DE LA SANTE ET DE LA RECHERCHE …, priority 2012, dated 2017)
“Also recorded” adds a separate entry of the source.

Assays:
human platelets [1] = test: Thrombin-induced aggregation of washed human platelets; type: cell-based; conditions: for thrombin-induced platelet aggregation: human platelets preincubated with peptide alone; for effect on the apelin inhibitory effect on thrombin-induced aggregation: human platelets, peptide together with apelin
Method: FIG. 5: APJ antagonist […]) and unprocessed double mutant apelin-36 (apelin-DM) confirm the role of APJ in the inhibition of platelet function by apelin. Thrombin-induced aggregation of human platelets preincubated with PBS, as control (black bar); […] (100 nM; white bar); apelin (10 nM; grey bar) or […] (100 nM) plus apelin (10 nM) (dashed bar). Venous blood was collected from healthy donors on 10% (v/v) trisodium citrate (3.8%). Written informed consent was obtained from all the donors. Platelet-rich plasma (PRP) was obtained by centrifugation (120 g; 15 minutes; 20° C.) and platelets were isolated by differential centrifugation as previously described^15. The platelet pellet was resuspended in modified Tyrode-HEPES buffer without CaCl2 (137 mM NaCl, 2 mM KCl, 0.3 mM NaH2PO4, 5.5 mM glucose, 5 mM Hepes, 12 mM NaHCO3, pH 7.3). Platelet aggregation was monitored by measuring light transmission through the stirred suspension of washed platelets (3×10^8/mL) at 37° C. in presence of 1 mM CaCl2 using a Chronolog aggregometer (Chrono-log Corporation, USA). When mentioned, platelets were first incubated with apelin-13, apelin-36, apelin-DM or […] for 3 minutes at 37° C. Platelet aggregation was triggered by adding collagen, thrombin, or ADP. Representative traces for aggregation were obtained from at least three independent experiments. Results are expressed as the percent change in light transmission with respect to the blank (buffer without platelets), set at 100%.

human platelets [2] = test: Intracellular Ca2+ mobilization in thrombin-stimulated human platelets (Fura-2); type: cell-based; conditions: for thrombin-induced Ca2+ mobilisation: human platelets preincubated with peptide alone; for effect on the apelin inhibitory effect on thrombin-induced Ca2+ mobilisation: human platelets, peptide together with apelin
Method: FIG. 6: APJ antagonist […]) and unprocessed double mutant apelin-36 (apelin-DM) confirm the role of APJ in the inhibition of platelet function by apelin. Intracellular Ca^2+ mobilization ([Ca^2+]i) in human platelets was monitored in real-time using a fluorescence spectrophotometer. Human platelets, loaded with Fura-2-AM were preincubated 3 minutes with PBS, as control (black bar); […] (100 nM; white bar); apelin (10 nM; grey bar) or […] (100 nM) plus apelin (10 nM) (dashed bar) before stimulation by thrombin (100 mU/mL). […] Human platelets were loaded with Fura-2 by incubation with 2 μM Fura-2-AM for 45 minutes at 37° C. Cells were then collected by centrifugation at 350 g for 15 min and resuspended in HEPES-buffered saline (145 mM NaCl, 10 mM HEPES, 10 mM D-glucose, 5 mM KCl, 1 mM MgSO4, pH 7.4), and supplemented with 0.1% (w/v) BSA. Fluorescence was recorded from 2 mL aliquots of magnetically stirred cell suspensions at 37° C. using a fluorescence spectrophotometer (Varian Ltd., Madrid, Spain) with excitation wavelengths of 340 and 380 nm and emission at 505 nm. Changes in [Ca^2+]i were monitored using the Fura-2 340/380 fluorescence ratio and calibrated according to the method of Grynkiewicz et al.^19. Ca^2+ release by thrombin was estimated using the integral of the rise in [Ca^2+]i for 2.5 minutes after its addition, taking a sample every second, and was expressed in nM as previously described^20.

wild-type mice = test: Tail bleeding time after intravenous injection; type: in vivo, mouse; conditions: for tail bleeding time: peptide alone; for effect on the apelin-induced increase in bleeding time: peptide together with apelin
From the text: FIG. 7: APJ antagonist […]) and unprocessed double mutant apelin-36 (apelin-DM) confirm the role of APJ in the inhibition of platelet function by apelin. Tail bleeding time in wild-type mice receiving an intravenous injection of PBS, as control (●); […] (500 nmol/kg; ▪); apelin (50 nmol/kg; ◯) or […] (500 nmol/kg) plus apelin (50 nmol/kg) (□). FIG. 8: APJ antagonist […]) and unprocessed double mutant apelin-36 (apelin-DM) confirm the role of APJ in the inhibition of platelet function by apelin. Tail bleeding time in wild-type mice receiving an intravenous injection of PBS, as control (●); apelin (50 nmol/kg; ◯); apelin-36 (500 nmol/kg; Δ); apelin-DM (500 nmol/kg; ▪), apelin-36 plus apelin (▾) or apelin-DM plus apelin (□). Complete blood counts and haematocrit were determined with an automatic cell counter, using the standard parameters for mice. Bleeding time assays were performed on overnight fasted animals, after injection of PBS, apelin-13, apelin-36, apelin-DM or […] into the retro-orbital plexus, by cutting off the tip of the tail (3 mm from the tip) and immediately immersing it in saline at 37° C. We then recorded the time taken for the bleeding to stop.

HUVEC [3] = test: HUVEC proliferation induced by VEGF (Cell Titer96 assay); type: cell-based, human
Method: FIG. 9: HUVEC proliferation and motility. HUVEC were serum deprived overnight and then treated for 24 h with or without VEGF in the presence of apelin wild-type (10 ng/ml) and/or apelin mut-36 (10 ng/ml). Cell proliferation was assessed using Cell Titer96 non-radioactive cell proliferation assay.

HUVEC [4] = test: Endothelial cell migration (motility) induced by VEGF; type: cell-based, human
[5] = test system: chick chorioallantoic membrane; test: Chick chorioallantoic membrane (CAM) assay; type: in vivo
mouse aortic ring = test: Mouse aortic ring assay
[6] = Cutaneous reverse passive Arthus reactions assay; type: in vivo
proApelin processing = proApelin processing in transfected cells with PC inhibitors (immunoblot); type: cell-based, human; conditions: cell transfection experiments, coexpression with apelin
From the text: FIG. 2: Human apelin cDNA encodes a protein of 77 amino acid residues. Newly synthesized apelin is a preproprotein that is proteolytically processed in order to generate mature 36, 17 and 13 amino acid forms. We cloned human apelin into pIRES2-eGFP vector adding a V5 tag in C-terminus of the apelin sequence. […] To identify the PCs involved in apelin processing, apelin and each of the PCs were transiently co-expressed in LoVo cells, a furin-deficient cell line. Supernatants were collected 24 hours after transfection and analyzed for proapelin processing by immunoblotting using a V5 antibody. As illustrated in (a), analyses of media derived from LoVo cells cotransfected with vector encoding proapelin and control vector show a band with an apparent molecular mass of 8-9 kDa, corresponding to the intact apelin precursor. […] FIG. 3: […]

With “Apelin-36: proApelin (Apelin-36), 36 amino acid cleavage product of preproapelin (LVQPRGSRNGPGPWQGGRRKFRRQRPRLSHKGPMPF; listed as Homo sapiens)” the thrombin-induced platelet aggregation (human platelets [1]) was “inhibited”, the “thrombin-induced Ca2+ mobilisation” value (human platelets [2]) was “inhibited” and the tail bleeding time (wild-type mice) was “significant increase in bleeding time”.
With “F13A: APJ receptor antagonist apelin-13 (F13A)” the thrombin-induced platelet aggregation (human platelets [1]) was “no effects”, the “effect on the apelin inhibitory effect on thrombin-induced aggregation” value (human platelets [1]) was “prevents the inhibitory effects of apelin alone; also recorded: abolished the apelin inhibitory effect” and the “thrombin-induced Ca2+ mobilisation” value (human platelets [2]) was “no effects”. For the same substance, the “effect on the apelin inhibitory effect on thrombin-induced Ca2+ mobilisation” value (human platelets [2]) was “prevents the inhibitory effects of apelin alone; also recorded: abolished the apelin inhibitory effect”, the tail bleeding time (wild-type mice) was “no effects” and the “effect on the apelin-induced increase in bleeding time” value (wild-type mice) was “prevents the inhibitory effects of apelin alone; also recorded: inhibited”.
In the case of “LVQPRGSRNGPGPWQGGSSKFSSQRPRLSHKGPMPF (Synthetic inhibitor of apelin) [Apelin-DM, unprocessed mutant of apelin; cleavage sites of proapelin (18RRKFRR) replaced by 18SSKFSS]”, the “effect on the apelin inhibitory effect on thrombin-induced aggregation” value (human platelets [1]) is reported as “abolished the apelin inhibitory effect”, the “effect on the apelin inhibitory effect on thrombin-induced Ca2+ mobilisation” value (human platelets [2]) is reported as “abolished the apelin inhibitory effect” and the “effect on the apelin-induced increase in bleeding time” value (wild-type mice) is reported as “inhibited”. The “endothelial cell proliferation induced by VEGF” value (HUVEC [3]) was “inhibits”, the “endothelial cell migration induced by VEGF” value (HUVEC [4]) was “inhibits” and the “formation of new vessels (neo-vascularisation)” value (shortened to “formation of new vessels”) [5] was “prevents the neo-vascularisation”. The “formation of new vessels” value (mouse aortic ring) was “prevents the neo-vascularisation” and the tissue inflammation [6] was “inhibited these processes”.
For “alpha1-PDX: Furin inhibitor serpin alpha1-antitrypsin, furin-motif variant of α1-antitrypsin”, the “processing of proApelin” value (proApelin processing) was “inhibited”.
With apelin the tissue inflammation [6] was “increased tissue inflammation”.
In the case of apelin-13, the thrombin-induced platelet aggregation (human platelets [1]) is reported as “inhibited”, the “thrombin-induced Ca2+ mobilisation” value (human platelets [2]) is reported as “inhibited” and the tail bleeding time (wild-type mice) is reported as “significant increase in bleeding time”. The “formation of new vessels” value [5] was “induced the formation of new vessels” and the “formation of new vessels” value (mouse aortic ring) was “induced the formation of new vessels”.
With “ppFurin: Furin inhibitor, prosegment proFurin” the “processing of proApelin” value (proApelin processing) was “inhibited”.
For ppPC5: PC inhibitor, prosegment proPC5, the “processing of proApelin” value (proApelin processing) was “inhibited”.
